# Assay: photoluminescence quantum yield (fraction); solvent given as SMILES
compound,measurement,setting,value
COc1cc2cc(C#Cc3ccc(/C=C(\C#N)C(=O)O)cc3)c(=O)oc2cc1OC,photoluminescence quantum yield,in CC#N,0.05
C[Si](C)(C)c1ccc2ccc3c([Si](C)(C)C)ccc4ccc1c2c43,photoluminescence quantum yield,in CCCCCC,0.42
same,photoluminescence quantum yield,in CO,0.5
same,photoluminescence quantum yield,in ClCCl,0.5
c1ccccc1,photoluminescence quantum yield,in C1CCCCC1,0.14
O=c1c2ccc(-c3ccc(N(c4ccccc4)c4ccccc4)cc3)cc2sc2cccc(-c3ccc(N(c4ccccc4)c4ccccc4)cc3)c12,photoluminescence quantum yield,in c1ccc2c(c1)c1ccccc1n2-c1ccc(-c2ccc(-n3c4ccccc4c4ccccc43)cc2)cc1,0.025
CC1(C)c2ccccc2N(c2ccc(-c3nc(-c4ccccn4)n(-c4ccc(N5c6ccccc6C(C)(C)c6ccccc65)cc4)n3)cc2)c2ccccc21,photoluminescence quantum yield,in ClCCl,0.0876
Oc1cc(-c2cccs2)ccc1-c1nc2ccccc2s1,photoluminescence quantum yield,in CCO,0.1
same,photoluminescence quantum yield,in ClCCl,0.0937
same,photoluminescence quantum yield,in O,0.01
Cc1cc(C)c(B(c2ccc(-n3c4ccccc4c4ccccc43)cc2)c2c(C)cc(C)cc2C)c(C)c1,photoluminescence quantum yield,in Cc1ccccc1,0.75
CC1(C)c2ccccc2-c2sc3ccccc3c21,photoluminescence quantum yield,in ClCCl,0.11
CCn1c2ccccc2c2cc(/C=C/c3cccc[n+]3CCCS(=O)(=O)[O-])ccc21,photoluminescence quantum yield,in C1CCOC1,0.09
same,photoluminescence quantum yield,in CC#N,0.03
same,photoluminescence quantum yield,in CC(C)=O,0.03
same,photoluminescence quantum yield,in Cc1ccccc1,0.06
CC(C)(C)c1ccc2c(c1)c1cc(C(C)(C)C)ccc1n2-c1cc(N2c3ccccc3C(c3ccccc3)(c3ccccc3)c3ccccc32)cc(-n2c3ccc(C(C)(C)C)cc3c3cc(C(C)(C)C)ccc32)c1C#N,photoluminescence quantum yield,in Cc1ccccc1,0.2
c1ccc(-c2nc(-c3ccccc3)c(N(c3ccccc3)c3ccccc3)s2)cc1,photoluminescence quantum yield,in ClC(Cl)Cl,0.43
C1=[N+](c2ccccc2)[B-]2(Oc3c1ccc1c4c(ccc31)C=[N+](c1ccccc1)[B-]1(O4)c3ccccc3Oc3ccccc31)c1ccccc1Oc1ccccc12,photoluminescence quantum yield,in Cc1ccccc1,0.77
same,photoluminescence quantum yield,in ClCCl,0.81
O=c1[nH]c(=O)c2nc3ccccc3nc2[nH]1,photoluminescence quantum yield,in CC#N,0.009
C[SiH]1c2ccccc2-c2cc3c(cc21)-c1ccccc1[SiH]3C (stereo not drawn),photoluminescence quantum yield,in ClCCl,0.5
CC1(C)C(/C=C/C2=C(Cl)C(=C/C=C3/N(Cc4ccc(C(=O)O)cc4)c4ccccc4C3(C)C)/CCC2)=[N+](Cc2ccc(C(=O)O)cc2)c2ccccc21,photoluminescence quantum yield,in CCO,0.11
CC[N+]1(CC)CN2C(=N1)C(C(=O)O)=Cc1cc(OC)ccc12,photoluminescence quantum yield,in O,0.509
Fc1ccc2c(c1)sc1nc(-c3ccccc3)sc12,photoluminescence quantum yield,in CS(C)=O,0.36
CC1=[N+]2C(=C(c3c4ccccc4cc4ccccc34)c3ccc(/C=C/C(C)(C)C)n3[B-]2(F)F)C=C1,photoluminescence quantum yield,in ClC(Cl)Cl,0.32
COc1cc(C2=c3c(c4ccc(C(C)(C)C)cc4c4cc(C(C)(C)C)ccc34)=[N+]3C2=Nc2c(-c4cc(OC)c(OC)c(OC)c4)c4c5ccc(C(C)(C)C)cc5c5cc(C(C)(C)C)ccc5c4n2[B-]3(F)F)cc(OC)c1OC,photoluminescence quantum yield,in Cc1ccccc1,0.01
COc1cc2c(cc1OC)C1=C[C@H](c3ccc(Cl)cc3)C3(C(C#N)=C(C#N)N1CC2)c1cc(Br)ccc1-c1ccc(Br)cc13,photoluminescence quantum yield,in ClCCl,0.00019
c1ccc(/C(=C(\c2ccccc2)c2ccccc2-c2ccc(-c3ccccc3)cc2)c2ccccc2-c2ccc(-c3ccccc3)cc2)cc1,photoluminescence quantum yield,in C1CCOC1,0.32
C=Cc1cc2ccccc2oc1=O,photoluminescence quantum yield,in CC#N,0.08
O=c1oc2ccccc2c2c1c(=O)oc1c3ccccc3cc(O)c12,photoluminescence quantum yield,in ClCCl,0.29
CN(C)c1ccc(-c2ccc(-c3cc(-c4ccccc4)c(-c4ccccc4)c(-c4ccccc4)c3-c3ccccc3)nc2)cc1,photoluminescence quantum yield,in ClC(Cl)Cl,0.33
CC(C)(C)c1cc2c3cc(C(C)(C)C)c(-c4cc5cc6c7cccc8cccc(c9cc(C(C)(C)C)cc(c5cc4C(C)(C)C)c96)c87)cc3cc3c4cccc5cccc(c(c1)c23)c54,photoluminescence quantum yield,in CC1CCCCC1,0.64
CC(C)(C)c1cc2c(c(C(C)(C)C)c1)O[B-]1(c3ccc([B-]45OC(c6ccccc6)=N[N+]4=Cc4cc(C(C)(C)C)cc(C(C)(C)C)c4O5)cc3)OC(c3ccccc3)=N[N+]1=C2 (stereo not drawn),photoluminescence quantum yield,in C1CCOC1,0.001
CCN(CC)c1ccc2cc(C#N)/c(=N\C(C)=O)oc2c1,photoluminescence quantum yield,in CCO,0.15
same,photoluminescence quantum yield,in ClCCl,0.8
COc1ccc2c(c1)CCC1=C(c3ccccc3)C3=Nc4c(-c5ccccc5)c5c(n4[B-](F)(F)[N+]3=C12)-c1ccc(OC)cc1CC5,photoluminescence quantum yield,in ClC(Cl)Cl,0.28
c1ccc(-c2nc(-c3ccccc3)c(-c3ccccc3)[nH]2)cc1,photoluminescence quantum yield,in CC#N,0.27
same,photoluminescence quantum yield,in CO,0.27
Cc1ccc(C(=O)NN2C3=C(CC4=C2CCCC4=O)C(=O)CCC3)cc1,photoluminescence quantum yield,in C1CCOC1,0.31
same,photoluminescence quantum yield,in CC#N,0.55
same,photoluminescence quantum yield,in CC(C)=O,0.32
same,photoluminescence quantum yield,in CCCCCO,0.5
same,photoluminescence quantum yield,in CO,0.4
same,photoluminescence quantum yield,in ClC(Cl)Cl,0.77
same,photoluminescence quantum yield,in ClCCl,0.44
CCCCCCCCN1c2ccccc2Sc2cc(/C=C/c3ccc(N(c4ccc(/C=C/c5ccc6c(c5)Sc5ccccc5N6CCCCCCCC)cc4)c4ccc(/C=C/c5ccc(/C=C/c6ccc(N(c7ccc(/C=C/c8ccc9c(c8)Sc8ccccc8N9CCCCCCCC)cc7)c7ccc(/C=C/c8ccc9c(c8)Sc8ccccc8N9CCCCCCCC)cc7)cc6)c6nsnc56)cc4)cc3)ccc21,photoluminescence quantum yield,in C1CCOC1,0.024
same,photoluminescence quantum yield,in CCOC(C)=O,0.125
same,photoluminescence quantum yield,in CN(C)C=O,0.001
same,photoluminescence quantum yield,in Cc1ccccc1,0.278
same,photoluminescence quantum yield,in ClC(Cl)Cl,0.061
same,photoluminescence quantum yield,in ClCCl,0.003
c1ccc2cc3cc(-c4cc(-c5nccs5)nc(-c5nccs5)c4)ccc3cc2c1,photoluminescence quantum yield,in CC#N,0.564
same,photoluminescence quantum yield,in CCCCCC,0.108
same,photoluminescence quantum yield,in CO,0.194
same,photoluminescence quantum yield,in ClC(Cl)Cl,0.433
CN(c1ccccc1)c1ccc(-c2ccc(-c3ccc(N(C)c4ccccc4)cc3)c3nc(-c4ccccc4)c(-c4ccccc4)nc23)cc1,photoluminescence quantum yield,in ClC(Cl)Cl,0.01
CN(C)c1ccc(/C=C/c2nc3ccc(N(C)C)cc3oc2=O)cc1,photoluminescence quantum yield,in C1CCCCC1,0.57
same,photoluminescence quantum yield,in C1COCCO1,0.59
same,photoluminescence quantum yield,in CC#N,0.21
same,photoluminescence quantum yield,in CC(C)=O,0.36
same,photoluminescence quantum yield,in CC(O)CO,0.024
same,photoluminescence quantum yield,in CCCCCCC,0.56
same,photoluminescence quantum yield,in CCO,0.016
same,photoluminescence quantum yield,in CCOC(C)=O,0.52
same,photoluminescence quantum yield,in CN(C)C=O,0.22
same,photoluminescence quantum yield,in CS(C)=O,0.04
same,photoluminescence quantum yield,in Cc1ccccc1,0.57
same,photoluminescence quantum yield,in ClC(Cl)Cl,0.52
same,photoluminescence quantum yield,in ClCCl,0.55
same,photoluminescence quantum yield,in OCC(O)CO,0.019
COc1ccccc1-c1nc2c([nH]1)C1=CC(=O)S[C@]1(C)[C@@]1(C)SC(=O)C=C21,photoluminescence quantum yield,in CC#N,0.11
COc1ccc(-c2csc(/C(C#N)=C/c3ccc(C#N)cc3)n2)cc1,photoluminescence quantum yield,in CC#N,0.008
same,photoluminescence quantum yield,in CCO,0.008
same,photoluminescence quantum yield,in CN(C)C=O,0.002
same,photoluminescence quantum yield,in Cc1ccccc1,0.248
same,photoluminescence quantum yield,in ClCCl,0.065
Cc1cc(-c2ccc(-c3n(C)c4ccccc4[n+]3C)cc2)ccc1-c1ccc(-c2n(C)c3ccccc3[n+]2C)cc1,photoluminescence quantum yield,in O,0.65
CC1(C)c2ccccc2N(c2ccccc2)c2ccc(S(=O)(=O)c3ccc4c(c3)C(C)(C)c3ccccc3N4c3ccccc3)cc21,photoluminescence quantum yield,in O=P(c1ccccc1)(c1ccccc1)c1ccccc1Oc1ccccc1P(=O)(c1ccccc1)c1ccccc1,0.5
CCCCn1c2c(-c3ccc(N(c4ccccc4)c4ccccc4)cc3)cc(C#N)cc2c2cc(C#N)cc(-c3ccc(N(c4ccccc4)c4ccccc4)cc3)c21,photoluminescence quantum yield,in ClCCl,0.6
CCC1=C(C)C2=C(c3ccc(-c4c5ccccc5c(-c5ccccc5)c5ccccc45)cc3)c3c(C)c(CC)c(C)n3[B-](F)(F)[N+]2=C1C,photoluminescence quantum yield,in CC#N,0.696
same,photoluminescence quantum yield,in CCCCCC,0.756
same,photoluminescence quantum yield,in CCO,0.841
same,photoluminescence quantum yield,in CN(C)C=O,0.232
same,photoluminescence quantum yield,in Cc1ccccc1,0.781
same,photoluminescence quantum yield,in ClCCl,0.744
COc1cc(C2=c3c(c4ccc(C(C)(C)C)cc4c4c(OC)c(OC)c(OC)cc34)=[N+]3C2=Nc2c(-c4cc(OC)c(OC)c(OC)c4)c4c5cc(OC)c(OC)c(OC)c5c5cc(C(C)(C)C)ccc5c4n2[B-]3(F)F)cc(OC)c1OC,photoluminescence quantum yield,in Cc1ccccc1,0.001
C(=C\c1cc(/C=C/c2ccc(N(c3ccccc3)c3ccccc3)cc2)ncn1)/c1ccc(N(c2ccccc2)c2ccccc2)cc1,photoluminescence quantum yield,in ClCCl,0.55
N#Cc1coc2ccccc2c1=O,photoluminescence quantum yield,in C1CCOC1,0.035
same,photoluminescence quantum yield,in C1COCCO1,0.0009
same,photoluminescence quantum yield,in CC#N,0.0005
same,photoluminescence quantum yield,in CC(C)O,0.001
same,photoluminescence quantum yield,in CCCCO,0.003
same,photoluminescence quantum yield,in CCCO,0.001
same,photoluminescence quantum yield,in CCOC(C)=O,0.002
same,photoluminescence quantum yield,in CN(C)C=O,0.001
same,photoluminescence quantum yield,in CO,0.003
same,photoluminescence quantum yield,in CS(C)=O,0.003
same,photoluminescence quantum yield,in ClC(Cl)Cl,0.002
same,photoluminescence quantum yield,in O,0.001
c1ccc(N(c2ccccc2)c2ccc(-c3ncc(-c4ccc(-c5ccc(-c6cnc(-c7ccc(N(c8ccccc8)c8ccccc8)cc7)s6)s5)s4)s3)cc2)cc1,photoluminescence quantum yield,in CO,0.16
CC1(C)c2cc(C#N)ccc2-c2ccc(N3c4ccccc4Oc4ccccc43)cc21,photoluminescence quantum yield,in C1CCCCC1,0.044
same,photoluminescence quantum yield,in C1CCOC1,0.08
same,photoluminescence quantum yield,in CC#N,0.001
same,photoluminescence quantum yield,in Cc1ccccc1,0.089
same,photoluminescence quantum yield,in ClC(Cl)Cl,0.11
CCCCC1(c2ccccc2)Nc2c(-c3ccc(N(C)C)cc3)ccc(-c3ccc(N(C)C)cc3)c2N=C1c1ccccc1 (stereo not drawn),photoluminescence quantum yield,in ClC(Cl)Cl,0.16
c1ccc2cc(-c3c4ccccc4c(-c4ccc(-c5ccc(-n6c7ccccc7c7ccccc76)cc5)cc4)c4ccccc34)ccc2c1,photoluminescence quantum yield,in ClCCl,0.7
CCN(CC)c1ccc(C2=C3C(C)=CC(/C=C/c4ccc(OCCCN=[N+]=[N-])cc4)=[N+]3[B-](F)(F)n3c(C)cc(C)c32)cc1,photoluminescence quantum yield,in CO,0.82
O=P1(c2ccccc2)C(c2ccc(N(c3ccccc3)c3ccccc3)cc2)=Cc2ccccc21 (stereo not drawn),photoluminescence quantum yield,in ClCCl,0.81
CC(C)Nc1cc2c(cc1F)c(=O)c1cc(F)c(NC(C)C)cc1n2C,photoluminescence quantum yield,in CCO,0.31
CC(C)[Si](C#Cc1c2nc3ccccc3nc2c(C#C[Si](C(C)C)(C(C)C)C(C)C)c2nc3c(ccc4cc5ccccc5cc43)nc12)(C(C)C)C(C)C,photoluminescence quantum yield,in CCCCCC,0.25
CCCCC1(CCCC)c2cc(C#Cc3ccc(C=C4c5ccccc5CCc5ccccc54)cc3)ccc2-c2ccc(C#Cc3ccc(C=C4c5ccccc5CCc5ccccc54)cc3)cc21,photoluminescence quantum yield,in C1CCOC1,0.027
